Results on one compound are retold here after publication PMC4258814, “Differences between murine arylamine N-acetyltransferase type 1 and human arylamine N-acetyltransferase type 2 defined by substrate specificity and inhibitor binding” (BMC Pharmacology & Toxicology, 2014).

Test [1] has as its target T1, (MOUSE)NAT1*1 (Mus musculus, UniProt P50294).
T1 construct: The open reading frame of (MOUSE)Nat1*1 [32] was subcloned; hexa-His (N, cleaved yes); made in house; host or cells: Escherichia coli BL21(DE3)CodonPlus-RIL
T1 sequence (P50294 1-290): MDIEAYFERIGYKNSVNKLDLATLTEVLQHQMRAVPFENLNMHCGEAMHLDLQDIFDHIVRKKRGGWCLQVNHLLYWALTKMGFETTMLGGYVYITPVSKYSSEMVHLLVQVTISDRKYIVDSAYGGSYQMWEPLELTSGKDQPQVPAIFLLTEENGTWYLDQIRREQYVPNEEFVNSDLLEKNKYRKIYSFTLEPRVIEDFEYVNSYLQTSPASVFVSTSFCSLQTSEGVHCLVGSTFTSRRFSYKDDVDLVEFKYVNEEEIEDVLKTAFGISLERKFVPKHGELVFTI
Set-up: method as in PMID 20170182. Conditions: in presence of (MOUSE)NAT1*1; ref [24]; cited from earlier work.

The target in test [2] is T2, (MOUSE)NAT2*1 (Mus musculus, UniProt P50295).
T2 construct: made in house
T2 sequence (P50295 1-290): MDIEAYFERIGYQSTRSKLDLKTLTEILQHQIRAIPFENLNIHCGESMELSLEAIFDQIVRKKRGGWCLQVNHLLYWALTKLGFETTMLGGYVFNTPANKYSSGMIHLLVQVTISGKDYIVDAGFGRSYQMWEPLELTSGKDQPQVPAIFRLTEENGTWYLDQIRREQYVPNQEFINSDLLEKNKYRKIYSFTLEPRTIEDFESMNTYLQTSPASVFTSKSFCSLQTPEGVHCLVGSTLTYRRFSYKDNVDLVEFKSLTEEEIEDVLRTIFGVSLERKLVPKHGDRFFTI
Further details: method as in PMID 23940600, PMID 20170182. The settings on record: read-out: IC50 with naphthoquinone 1, AcCoA 400 μM, substrate 4ABA, ref [25], [24]; cited from earlier work.

In another test the target is T3, (MOUSE)NAT2_R127L (Mus musculus, UniProt P50295, R127L).
T3 construct: made in house
T3 sequence (P50295 1-290 R127L): T2 sequence (P50295 1-290) with R127L
Set-up: method as in PMID 23940600. The settings on record: in presence of (MOUSE)NAT2_R127L; ref [25]; cited from earlier work.

The test system of a further test is (HUMAN)NAT1*4. Further details: method as in PMID 23940600. The settings on record: read-out: IC50 with naphthoquinone 1, AcCoA 400 μM, substrate 4ABA, ref [25]; cited from earlier work.
Another test has as its system (MESAU)NAT2*1. Further details: method as in PMID 24758871. The settings on record: read-out: IC50 with naphthoquinone 1, AcCoA 400 μM, substrate 4ABA, ref [26]; cited from earlier work.
Test [3] has as its target T4, (HUMAN)NAT2*4 (Homo sapiens, UniProt P11245).
T4 construct: made in house
T4 sequence (P11245 1-290): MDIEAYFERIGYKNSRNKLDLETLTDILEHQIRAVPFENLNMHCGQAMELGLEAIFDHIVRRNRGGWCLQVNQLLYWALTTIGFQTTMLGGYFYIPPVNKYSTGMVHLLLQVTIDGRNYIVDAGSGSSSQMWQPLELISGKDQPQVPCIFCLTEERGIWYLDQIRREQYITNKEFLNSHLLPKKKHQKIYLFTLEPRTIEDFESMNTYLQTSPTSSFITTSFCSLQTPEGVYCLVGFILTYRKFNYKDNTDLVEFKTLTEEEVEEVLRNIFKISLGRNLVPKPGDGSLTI
Further details: method as in PMID 23940600. The settings on record: in presence of (HUMAN)NAT2*4; ref [25]; cited from earlier work.

Test [4] addresses T1, (MOUSE)NAT1*1. The test is described as follows: Inhibition of NAT activity (AcCoA hydrolysis rate). The settings on record: AcCoA 400 μM, substrate 5AS, 5% DMSO. The class given is biochemical. The text has this: (§1) The final concentration of dimethyl sulphoxide (DMSO) in reaction mixes was 5% (v/v). IC50 values were estimated using a dose–response-based regression model in Kyplot® software. Curves were fitted by least squares analysis with confidence limits of 95%.

Test [5] concerns the target T4, (HUMAN)NAT2*4. The test is described as follows: Inhibition of NAT activity (AcCoA hydrolysis rate). In kind it is biochemical. Conditions: AcCoA 400 μM, substrate 2-aminofluorene, 5% DMSO.
From the text: as §1

The next test deals with T5, (MOUSE)NAT2_F125S (Mus musculus, UniProt P50295, F125S).
T5 construct: His tag (only implied by Ni-NTA purification) (cleaved yes); made in house; host or cells: E. coli Rosetta(DE3)pLysS
T5 sequence (P50295 1-290 F125S): T2 sequence (P50295 1-290) with F125S
The test is described as follows: Inhibition of NAT activity (AcCoA hydrolysis rate). The class given is biochemical. Conditions: AcCoA 400 μM, substrate 5AS, 5% DMSO.
From the text: as §1

For another test, the target named is T6, (MOUSE)NAT2_R127G (Mus musculus, UniProt P50295, R127G).
T6 construct: made in house
T6 sequence (P50295 1-290 R127G): T2 sequence (P50295 1-290) with R127G
Set-up: method as in PMID 23940600. The settings on record: in presence of (MOUSE)NAT2_R127G; ref [25]; cited from earlier work.

Test [6] deals with T2, (MOUSE)NAT2*1. Further details: method as in PMID 23940600, PMID 20170182. The settings on record: in presence of (MOUSE)NAT2*1; ref [25], [24]; cited from earlier work.

Changes are numbered by the printed parent chain. pIC50: −log10 of the molar value. Marks after values point to notes of the source that are not given here.

`Cc1cc(C)cc(NC2=C(NS(=O)(=O)c3ccccc3)C(=O)c3ccccc3C2=O)c1` [naphthoquinone 1, N-(3-(3,5-dimethylphenylamino)-1,4-dioxo-1,4-dihydronaphthalen-2-yl)benzenesulphonamide]: the “λ max of naphthoquinone 1” value on (MOUSE)NAT1*1 [1] is reported as 498^b nm; on (MOUSE)NAT2_R127L, 498^a nm; on (HUMAN)NAT2*4 [3], 498^a nm; on (MOUSE)NAT2_R127G, 498^a nm; on (MOUSE)NAT2*1 [6] it was 625^a,b nm. The pIC50 on (MOUSE)NAT2*1 [2] is 5.89; in the test with (HUMAN)NAT1*4, 5.28; in the test on (MESAU)NAT2*1, 4.05; against (MOUSE)NAT1*1 [4], 3.89; against (HUMAN)NAT2*4 [5] it was less than 4.00; on (MOUSE)NAT2_F125S it was 4.16.

The pIC50 is −log10 of the IC50, conventionally taken in molar units.
